These are literature values, as cited in patent US11708332B2, “Human plasma kallikrein inhibitors” (BioCryst Pharmaceuticals, Inc., priority 2014, dated 2023).

Data set [1] relates to hereditary angioedema (HAE).
For data set [2], the system named is lipopolysaccharide (LPS)- or bacterial-induced sepsis. To be noted: LPS- or bacterial-induced sepsis in animals.
In data set [3] the test system is middle cerebral artery occlusion (MCAO). To be noted: mouse model of MCAO.

On to ecallantide [DX-88], for which, in data set [1] (patients with HAE), the “edema in patients with hereditary angioedema (HAE)” value is “alleviates edema”.

As to `NC(N)=NCCC[C@@H](N)C(=O)N[C@@H](CCCN=C(N)N)C(=O)N1CCC[C@H]1C(=O)N1C[C@H](O)C[C@H]1C(=O)NCC(=O)N[C@@H](Cc1cccs1)C(=O)N[C@@H](CO)C(=O)N1Cc2ccccc2C[C@@H]1C(=O)N1[C@H](C(=O)N[C@@H](CCCN=C(N)N)C(=O)O)C[C@@H]2CCCC[C@@H]21` [Icatibant], in data set [1] (HAE), the “effectiveness in treating HAE” value is “effective”. In the case of H-D-Pro-Phe-Arg-chloromethylketone, the lesions result in data set [2] is “reduce”.

B1: Cl-inhibitor: "Cl-inhibitor reduced infarct size in a mouse model of middle cerebral artery occlusion (MCAO)" (protein, UniProt P05155 23-500, looked up)
Plasma protease C1 inhibitor: NPNATSSSSQDPESLQDRGEGKVATTVISKMLFVEPILEVSSLPTTNSTTNSATKITANTTDEPTTQPTTEPTTQPTIQPTQPTTQLPTDSPTQPTTGSFCPGPVTLCSDLESHSTEAVLGDALVDFSLKLYHAFSAMKKVETNMAFSPFSIASLLTQVLLGAGENTKTNLESILSYPKDFTCVHQALKGFTTKGVTSVSQIFHSPDLAIRDTFVNASRTLYSSSPRVLSNNSDANLELINTWVAKNTNNKISRLLDSLPSDTRLVLLNAIYLSAKWKTTFDPKKTRMEPFHFKNSVIKVPMMNSKKYPVAHFIDQTLKAKVGQLQLSHNLSLVILVPQNLKHRLEDMEQALSPSVFKAIMEKLEMSKFQPTLLTLPRIKVTTSQDMLSIMEKLEFFDFSYDLNLCGLTEDPDLQVSAMQHQTVLELTETGVEAAAASAISVARTLLVFEVQQPFLFVLWDQQHKFPVFMGRVYDPRA
As for B1, the infarct size result in data set [3] was “reduced”.

B2: C1-inhibitor: "a physiological inhibitor (C1-inhibitor)" (protein, UniProt P05155 23-500, looked up)
Plasma protease C1 inhibitor: B1 Plasma protease C1 inhibitor
For B2, the lesions result in data set [2] was “reduce”.
